The text below walks through data of patent US20230416782A1, “ENHANCED NANOPARTICLE DELIVERY SYSTEMS” (Children's Hospital Medical Center, priority 2020, published 2023).

For test [1], the system named is HeLa cells. The experiment in a line: luciferase DNP transfection of HeLa cells with drug given before, with or after the DNPs (luciferase activity, light-based assay). It counts as cell-based. The following applies: drug four hours before, at the same time as, or four hours after luciferase DNPs, versus DNP alone. As for the experimental part:
HeLa cells were transfected with luciferase DNPs either four hours after cells were treated with drug, at the same time as cells were treated with drug, or four hours before cells were treated with drug; DNP alone, RX001 (roscovitine), RX011 (spermine), and RX008 (ruxolitinib).
HeLa cells were transfected with luciferase DNPs either four hours after cells were treated with drug, at the same time as cells were treated with drug, or four hours before cells were treated with drug, DNP alone, RX012 (doxorubicin), RX013 (acetohexamide), and RX014 (sildenafil citrate).
FIG. 12. […] HeLa cell were treated for four hours prior to luciferase DNP administration. Drugs were obtained from a blinded plate. Labels on graphs indicate drugs position on blinded plate. *: p<0.05, **: p<0.01, ***: p<0.001, ***: p<0.0001, compared to DNP Alone group.
(§1) FIG. 17 depicts pharmacological manipulations before, after, and during DNP transfection. Hela cells were given roscovitine (1 μM, CDK1 inhibitor), spermine (1 μM, CKII activator), or ruxolitinib (0.1 μM, JAK inhibitor) at various times during transfection of luciferase DNPs. A. Hela cells were dosed with drugs for 4 hours, washed, and then given luciferase DNPs for 24 hours. B. Hela cells were simultaneously given drug and luciferase DNPs for 24 hr. C. Hela cells were given luciferase DNPs for 4 hours, washed, and then given drug for 24 hr. All cells were then lysed and analyzed for luciferase activity with a light-based assay. (n=8 for each group, signifies p<0.05 and signifies p<0.001).
as §1, with “Hela” for “FIG. 17 depicts pharmacological manipulations before, after, and during DNP transfection. Hela”, “group, mean and SEM shown,” for “group,”, “p<0.001)” for “p<0.001).”

The subject of test [2] is hCFTR gene transfer. The experiment in a line: in vivo hCFTR gene transfer by DNP with drug (CFTR expression, PCR). Also on record: species or system mice. The following applies: 2, 4 and 7 days post-DNP administration; versus DNP alone. An excerpt: FIG. 16. Gene transfer of hCFTR is enhanced by pharmacologic manipulation of interactome proteins. DMP alone, RX001 (roscovitine), and RX008 (ruxolitinib), 2 days post-DNP administration, 4 days post-DNP administration and 7 days post-DNP administration.
FIG. 22. CFTR Expression comparison between NHBE cells (normal human bronchial/tracheal epithelial cells), Untreated Mice and Day 2 DNP Treated Mice, and CFTR Expression comparison in Day 4 mice treated with a vehicle (DNP Alone) or drug. Day 4 data represents vector subtracted values for the PCR of CFTR.

Test [3] deals with luciferase DNP gene transfer. The experiment in a line: in vivo luciferase DNP gene transfer, drug dosed 2 hours before intratracheal DNP (BLI total photons and lung luciferase activity). The note with it: for enhancement of in vivo DNP transfection over time (BLI): 2, 3, 7 and 14 days after DNP; for enhancement of in vivo DNP transfection over time (BLI) / DNP gene delivery efficacy in vivo (BLI total photons and lung luciferase activity): roscovitine 10 mg/kg, spermine 20 mg/kg, ruxolitinib 1 mg/kg, 2 hours prior to intratracheal 100 μg luciferase DNP; for DNP gene delivery efficacy in vivo (BLI total photons and lung luciferase activity): 14 days post DNP administration; for luciferase gene transfer in vivo, Bioluminescent Image (BLI) analysis: day 2, day 3, day 7 and day 14, compared to DNP Alone group; for total photons over a 10 min BLI exposure from the chest ROI, difference from the DNP alone group: day 14 after DNP, spermine 20 mg/kg (P<0.5), roscovitine 10 mg/kg (p<0.01), dosed 2 hours prior to intratracheal 100 μg luciferase DNP; for luciferase gene transfer in vivo, BLI image analysis and luciferase activity assay: versus DNP alone.
Method: Total photon measurements were taken from the chest of each mouse, ROI outlined in red, and background luminescence was subtracted from mice saline control mice (not shown). B. Total photons collected over a 10 min BLI exposure from the ROI at each day.
All data was collected 14 days post DNP administration. […] The ROI, outlined in red, was consistently drawn on each mouse and used to quantify total photons in each mouse. B. Total photons collected over a 10 min BLI exposure from the ROI. Mice that received saline instead of DNPs (not shown) were used to subtract background from the experimental mice. […] Lungs from mice used in B were harvested immediately after BLI imaging and assayed for luciferase activity. (n>10 for each group, p<0.05, p<0.01, p<0.001)
All data was collected 14 days post DNP administration. […] The ROI, outlined in red, was consistently drawn on each mouse and used to quantify total photons in each mouse. B. Total photons collected over a 10 min BLI exposure from the ROI. Mice that received saline instead of DNPs (not shown) were used to subtract background from the experimental mice. […] Lungs from mice used in B were harvested immediately after BLI imaging and assayed for luciferase activity. (n>10 for each group, mean and SEM shown, p<0.05, p<0.01, p<0.001)

`CC[C@H](CO)Nc1nc(NCc2ccccc2)c2ncn(C(C)C)c2n1` [RX001, Roscovitine]: the “gene transfer of luciferase in vitro” value in test [1] is listed as “enhanced”. Moreover, in test [2], the “gene transfer of hCFTR” value is “enhanced”. Further, in test [3], the “enhancement of in vivo DNP transfection over time (BLI)” value (“enhancement … over time (BLI)” for short) was “maintained over time”; the “DNP gene delivery efficacy in vivo (BLI total photons and lung luciferase activity)” value (from here on “DNP gene delivery efficacy in vivo”) is “enhancement”; the “luciferase gene transfer in vivo, Bioluminescent Image (BLI) analysis” value (“luciferase gene transfer … (BLI) analysis” for short) was “enhances”; the “total photons over a 10 min BLI exposure from the chest ROI, difference from the DNP alone group” value is given as “significantly different”. Moreover, in test [3], the “luciferase gene transfer in vivo, BLI image analysis and luciferase activity assay” value is given as “enhances”.
`N#CC[C@H](C1CCCC1)n1cc(-c2ncnc3[nH]ccc23)cn1` [RX008, Ruxolitinib]: the “gene transfer of luciferase in vitro” value in test [1] is “enhanced”. Moreover, in test [2], the “gene transfer of hCFTR” value is “enhanced”. Further, in test [3], the “enhancement … over time (BLI)” value is recorded as “maintained over time”; the “DNP gene delivery efficacy in vivo” value was “enhancement”; the “luciferase gene transfer … (BLI) analysis” value was “enhances”; the “luciferase gene transfer in vivo, BLI image analysis and luciferase activity assay” value is given as “enhances”.
Consider `NCCCNCCCCNCCCN` [RX011, Spermine], for which the “gene transfer of luciferase in vitro” value in test [1] is “enhanced”. In test [3], the “enhancement … over time (BLI)” value is reported as “maintained over time”; the “DNP gene delivery efficacy in vivo” value was “enhancement”; the “luciferase gene transfer … (BLI) analysis” value is given as “enhances”; the “total photons over a 10 min BLI exposure from the chest ROI, difference from the DNP alone group” value is “significantly different”. For the same compound, the “luciferase gene transfer in vivo, BLI image analysis and luciferase activity assay” value in test [3] is on record as “enhances”.
As to `COc1cccc2c1C(=O)c1c(O)c3c(c(O)c1C2=O)C[C@@](O)(C(=O)CO)C[C@@H]3O[C@H]1C[C@H](N)[C@H](O)[C@H](C)O1` [RX012, Doxorubicin], the “gene transfer of luciferase in vitro” value in test [1] is listed as “enhanced”.
Consider `CC(=O)c1ccc(S(=O)(=O)NC(=O)NC2CCCCC2)cc1` [RX013, Acetohexamide], for which, in test [1], the “gene transfer of luciferase in vitro” value is “enhanced”.
`CCCc1nn(C)c2c(=O)nc(-c3cc(S(=O)(=O)N4CCN(C)CC4)ccc3OCC)[nH]c12` [RX014, Sildenafil]: the “gene transfer of luciferase in vitro” value in test [1] is given as “enhanced”.
